From patent publication US11981676B1, “Pyrazolo[4,3-c][2,6]naphthyridines as CK2 inhibitors” (KING FAISAL UNIVERSITY, priority 2024, dated 2024)

How the values were obtained:
[1] = test system: HL60 (leukemia); assay: In vitro cytotoxic activity MTT assay, HL60; type: cell-based; settings: Homo sapiens, HL-60; HL60 cells, exposed for 96 hours, 50% inhibition of cell proliferation; read-out: Cytotoxicity activity IC50, HL60 (leukemia)
Procedure: (§1) Compounds 1-16 were screened for their in vitro cytotoxic activity utilizing a 3-(4,5-dimethyl-thiazol-2-yl)-2,5-diphenyltetrazolium bromide (MTT) assay against selected cancer human cell lines consisting of PC3 (prostate), HCT116 (colon), A375 (melanoma), H1299 (lung), MIAPaCa-2 (pancreas), HL60 (leukemia), MCF7 (breast), MDA-MB-231 (breast) (T. Mosmann, J. Immunol. Meth., 1983, 65, 55-63). The cells were cultured at 37° C. in RMPI1640 medium supplemented with 10% fetal bovine serum, 50 IU/mL penicillin, and 50 μg/mL streptomycin in a 5% CO2 incubator. All cells were sub-cultured 3 times/week by trypsinisation. Viable cells were seeded and allowed to adhere for 12 hours before a test drug was added in 96-well plates at an initial density of 1.0×10^5 cells/mL. Tumor cell lines were separately exposed to various concentrations of the tested compounds followed by incubation at a temperature of 37° C. during 96 hours inside a medium of fresh RMPI 1640. Cells were subsequently incubated at 37° C. using MTT at 0.5 mg/mL during 4 hours. After removal of supernatant, formazan crystals were dissolved in isopropanol and the optical density was measured at 570 nm. CX-4945 was used as a positive control.

[2] = test system: PC3 (prostate); assay: In vitro cytotoxic activity MTT assay, PC3; type: cell-based; settings: Homo sapiens, PC-3; PC3 cells, exposed for 96 hours, 50% inhibition of cell proliferation; read-out: Cytotoxicity activity IC50, PC3 (prostate)
Procedure: as §1

[3] = test system: H1299 (lung); assay: In vitro cytotoxic activity MTT assay, H1299; type: cell-based; settings: Homo sapiens, NCI-H1299; H1299 cells, exposed for 96 hours, 50% inhibition of cell proliferation; read-out: Cytotoxicity activity IC50, H1299 (lung)
Procedure: as §1

[4] = molecular target: T1, recombinant human CK2 (RRββ-holoenzyme) (Homo sapiens, UniProt P68400); assay: CK2 Kinase Assay (33P-ATP, filter plate); type: biochemical; settings: recombinant human CK2, final ATP 15 μM, 10 min at 30° C.; read-out: protein kinase CK2 IC50
T1 construct: purchased Millipore
T1 sequence (P68400 whole entry): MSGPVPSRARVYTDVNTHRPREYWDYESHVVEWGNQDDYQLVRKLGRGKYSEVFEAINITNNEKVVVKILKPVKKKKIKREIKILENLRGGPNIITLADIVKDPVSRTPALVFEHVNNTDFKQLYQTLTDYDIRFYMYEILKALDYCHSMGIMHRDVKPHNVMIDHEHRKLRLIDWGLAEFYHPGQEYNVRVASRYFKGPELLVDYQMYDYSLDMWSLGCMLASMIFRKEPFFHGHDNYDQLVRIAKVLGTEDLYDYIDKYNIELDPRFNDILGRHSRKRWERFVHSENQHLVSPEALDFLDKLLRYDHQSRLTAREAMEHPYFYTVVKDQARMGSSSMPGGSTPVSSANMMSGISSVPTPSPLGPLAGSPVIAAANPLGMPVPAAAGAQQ
T1 sequence (P67870 whole entry partner): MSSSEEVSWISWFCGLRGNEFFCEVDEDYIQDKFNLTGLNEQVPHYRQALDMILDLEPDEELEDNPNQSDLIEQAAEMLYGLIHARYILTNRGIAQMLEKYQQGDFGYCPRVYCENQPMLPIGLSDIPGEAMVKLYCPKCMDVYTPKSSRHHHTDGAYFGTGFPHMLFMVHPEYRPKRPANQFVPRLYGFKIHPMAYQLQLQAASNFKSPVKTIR
Procedure: CK2 Kinase Assay was conducted using the protocol as described in Pierre F. et al; J. Med. Chem. 2011, 54, 635-654. The tested compounds in aqueous solution were added at a volume of 10 μL to a reaction mixture comprising 10 μL of assay dilution buffer (ADB; 20 mM MOPS, pH 7.2, 25 mM β-glycerol phosphate, 5 mM EGTA, 1 mM sodium orthovanadate, and 1 mM dithiothreitol), 10 μL of substrate peptide (RRRDDDSDDD, dissolved in ADB at a concentration of 1 mM), 10 μL of recombinant human CK2 (RRββ-holoenzyme, 25 ng dissolved in ADB; Millipore). Reactions were initiated by the addition of 10 μL of ATP solution (90% 75 mMMgCl2, 75 μM ATP (final ATP concentration:15 μM) dissolved in ADB; 10% [γ-33P] ATP (stock 1mCi/100 μL; 3000 Ci/mmol (Perkin-Elmer) and maintained for 10 min at 30° C. The reactions were quenched with 100 μL of 0.75% phosphoric acid and then transferred to and filtered through a phosphor cellulose filter plate (Millipore). After washing each well five times with 0.75% phosphoric acid, the plate was dried under vacuum for 5 min and, following the addition of 15 μL of scintillation fluid to each well, the residual radioactivity was measured using a Wallac […]. The IC50 values were derived from eight concentrations of test inhibitors.

[5] = test system: MCF7 (breast); assay: In vitro cytotoxic activity MTT assay, MCF7; type: cell-based; settings: Homo sapiens; MCF7 cells, exposed for 96 hours, 50% inhibition of cell proliferation; read-out: Cytotoxicity activity IC50, MCF7 (breast)
Procedure: as §1

[6] = test system: HCT116 (colon); assay: In vitro cytotoxic activity MTT assay, HCT116; type: cell-based; settings: Homo sapiens, HCT-116; HCT116 cells, exposed for 96 hours, 50% inhibition of cell proliferation; read-out: Cytotoxicity activity IC50, HCT116 (colon)
Procedure: as §1

[7] = test system: MIAPaCa-2 (pancreas); assay: In vitro cytotoxic activity MTT assay, MIAPaCa-2; type: cell-based; settings: Homo sapiens, MIA PaCa-2; MIAPaCa-2 cells, exposed for 96 hours, 50% inhibition of cell proliferation; read-out: Cytotoxicity activity IC50, MIAPaCa-2 (pancreas)
Procedure: as §1

[8] = test system: A375 (melanoma); assay: In vitro cytotoxic activity MTT assay, A375; type: cell-based; settings: Homo sapiens, A-375; A375 cells, exposed for 96 hours, 50% inhibition of cell proliferation; read-out: Cytotoxicity activity IC50, A375 (melanoma)
Procedure: as §1

[9] = test system: MDA-MB-231 (breast); assay: In vitro cytotoxic activity MTT assay, MDA-MB-231; type: cell-based; settings: Homo sapiens; MDA-MB-231 cells, exposed for 96 hours, 50% inhibition of cell proliferation; read-out: Cytotoxicity activity IC50, MDA-MB-231 (breast)
Procedure: as §1

O=C(O)c1n[nH]c2c1nc(Nc1cccc(Cl)c1)c1ccncc12 [Compound 1, 5-((3-chlorophenyl)amino)-1H-pyrazolo[4,3-c][2,6]naphthyridine-3-carboxylic acid]
IC50 [1]: 3 µM
IC50 [2]: 1.8 µM
IC50 [3]: 2.2 µM
IC50 [4]: 0.031 µM
IC50 [5]: 4.9 µM
IC50 [6]: 1.9 µM
IC50 [7]: 0.9 µM
IC50 [8]: 4.3 µM
IC50 [9]: 4.1 µM
